Laboratory results from US10112955B2, “Isoindoline, azaisoindoline, dihydroindenone and dihydroazaindenone inhibitors of Mnk1 and Mnk2” (eFFECTOR THERAPEUTICS, INC., priority 2015, dated 2018).

Columns and labels:
Phosphorylated eIF4E = test: peIF4E Signaling Cellular Assay (CisBio peIF4E HTRF); type: cell-based; settings: cells incubated with compound for 2 hrs at 37° C., 12-point curve
Summary of the method: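 Phospho-eIF4E measured by HTRF (665 and 620 nm ratio) after overnight antibody incubation of lysates from cells exposed 2 h at 37° C to 3-fold compound dilutions. IC50 fitted by nonlinear regression of percent inhibition.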

MNK2 = MNK2 (Homo sapiens (Human), UniProt Q9HBH9); test: MNK Biochemical Enzymatic Assay (ADP-Glo), MNK2; settings: 3 nM recombinant MNK2, 50 μM substrate peptide, 10 μM ATP
Sequence of MNK2 (Q9HBH9 whole entry): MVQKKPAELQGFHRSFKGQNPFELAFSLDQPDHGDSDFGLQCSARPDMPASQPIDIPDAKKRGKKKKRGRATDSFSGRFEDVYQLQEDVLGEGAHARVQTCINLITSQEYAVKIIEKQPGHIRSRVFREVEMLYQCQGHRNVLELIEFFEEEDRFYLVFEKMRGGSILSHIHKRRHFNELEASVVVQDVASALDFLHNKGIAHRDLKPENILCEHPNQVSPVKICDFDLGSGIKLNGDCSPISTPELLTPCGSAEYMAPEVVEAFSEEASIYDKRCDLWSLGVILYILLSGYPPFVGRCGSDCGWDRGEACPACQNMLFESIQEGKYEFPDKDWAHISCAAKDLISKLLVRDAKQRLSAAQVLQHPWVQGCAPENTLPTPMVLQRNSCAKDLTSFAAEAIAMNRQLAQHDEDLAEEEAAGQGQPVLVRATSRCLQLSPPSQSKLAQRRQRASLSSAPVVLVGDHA
Description: Compounds are screened for MNK inhibition using the ADP-Glo kinase assay kit (Promega, catalogue No. V9101). All kinase reactions are performed in Reaction Buffer E (15 mM HEPES pH7.4, 20 mM NaCl, 1 mM EGTA, 10 mM MgCl2, 0.1 mg/ml BGG, and 0.02% Tween-20). […] Final DMSO concentration in each reaction is 1%.
Kinase reactions are carried out in 96-well half-area white flat-bottom polystyrene plates in a final volume of 25 μl. MNK1/2 enzymes are pre-incubated with compound and peptide substrate for 5 minutes prior to the addition of ATP. After the addition of ATP, kinase reactions are incubated at room temperature for 40 minutes. Reactions are subsequently stopped by the addition of 25 μl of ADP-Glo Reagent and incubating for an additional 40 minutes. The final luminescent signal used for kinase activity readout is produced by the addition of 45 μl of Kinase Detection Reagent (ADP-Glo kit, Promega) and incubating for 40 minutes.

[1] = Pharmacokinetics, single oral gavage administration; type: in vivo; settings: male Sprague Dawley rats, single oral gavage 10 mg/kg, N = 3/group (Cpd. 71 N = 2), formulation 10% NMP/90% PEG400 (Cpd. 57: 10% DMA/90% PEG300); for AUC(0-inf) / Cmax / Tmax / half-life: rat, plasma
Description: (§1) Groups of Balb/c mice or Sprague-Dawley rats (n≥3 per dose group) are administered single doses of test compound. Compounds are formulated either as solutions in 10% N-methylpyrrolidone, 90% polyethyleneglycol 400 or as suspensions in 0.5% methylcellulose in water for oral gavage administration at a nominal dose level of 10 mg/kg. Compounds are formulated in 10% dimethylisosorbide, 15% ethanol, 35% propylene glycol, and 40% saline (or 40% D5W) for intravenous administration at a nominal dose level of 1 mg/kg. For intravenously dosed animals, blood samples are collected at 0.083, 0.25, 0.5, 1, 2, 4, 8, and 24 h post dose. For orally dosed animals, blood samples are collected at 0.25, 0.5, 1, 2, 4, 8, and 24 h post dose. Blood samples are collected from mice either serially via submandibular vein (approximately 0.1 mL each) or terminally via cardiac puncture (approximately 0.5 mL each). Blood samples are collected serially from rats via jugular vein catheter (approximately 0.2 mL each). Each blood sample is collected into a tube that is chilled and contains potassium EDTA as the anticoagulant. Plasma is separated and stored at approximately −80 C until analysis. Following protein precipitation with acetonitrile containing an internal standard, plasma samples are analyzed using a liquid chromatography/high-resolution mass spectrometry (LC-HRMS) method to determine plasma concentrations. Plasma concentration versus time data are subjected to noncompartmental pharmacokinetic analysis using Phoenix™ Winnonlin® (Certara LP) to determine pharmacokinetic parameters, including Area Under the Curve (AUC), Clearance (Cl), Volume of Distribution at Steady-State (Vss), and terminal half-life (T1/2). Data from orally and intravenously dose are highlighted in Tables 3 and 4, respectively.

[2] = Pharmacokinetics, single intravenous bolus administration; type: in vivo; settings: rat, plasma, male Sprague Dawley rats, single intravenous bolus 1 mg/kg, N = 3/group, formulation 10% NMP/15% EtOH/35% PEG400/40% D5W (Cpd. 57: 10% DMA/15% EtOH/35% PEG400/40% D5W); for half-life: read-out: T½ (converted); for Vd: read-out: Vss
Description: as §1, with “Compounds are formulated in 10% dimethylisosorbide, 15% ethanol, 35% propylene glycol, and 40% saline (or 40% D5W) for intravenous administration at a nominal dose level of 1 mg/kg.” left out

| IC50 (Phosphorylated eIF4E) [nM] | IC50 (MNK2) [nM] | F [1] [%] | AUC(0-inf) [1] [ng·h/mL] | Cmax [1] [ng/mL] | Tmax [1] [h] | half-life [1] [h] | AUC(0-inf) [2] [ng·h/mL] | clearance [2] [mL/min/kg] | half-life [2] [h] | Vd [2] [L/kg] | Structure (SMILES) |
| --- | --- | --- | --- | --- | --- | --- | --- | --- | --- | --- | --- |
| < 50 | < 10 | 27.9 | 1370 | 417 | 0.417 | 9.15 | 491 | 35.3 | 9.44 | 13.2 | Cc1cc(Nc2ncnc(N)c2Cl)cc2c1C(=O)NC21CCCCC1 [Cpd. No. 58, 6′-((6-amino-5-chloropyrimidin-4-yl)amino)-4′-methylspiro[cyclohexane-1,1′-isoindolin]-3′-one] |
| < 50 | < 10 | 14.5 | 2490 | 584 | 0.833 | 3.27 | 1720 | 11.1 | 7.78 | 3.46 | COc1c(N)ncnc1Nc1cc(C)c2c(c1)C1(CCCCC1)NC2=O [Cpd. No. 57, 6′-((6-amino-5-methoxypyrimidin-4-yl)amino)-4′-methylspiro[cyclohexane-1,1′-isoindolin]-3′-one] |
